Measurements as given in US20260167619A2, “INDOLINE COMPOUNDS AND DERIVATIVES AS EGFR INHIBITORS” (BeOne Medicines I GmbH, priority 2020, published 2026).

Tests used:
[1] = target: T1, EGFR (aa668-1210, Invitrogen) (Homo sapiens, UniProt P00533); assay: Biochemical EGFR inhibition assay (TR-FRET), wild-type EGFR; details: ATP at Km, 15 min pre-incubation, 60 min reaction; read-out: WT (Km ATP) IC50
T1 construct: EGFR (aa668-1210, Invitrogen); purchased Invitrogen
Description: (§1) Compounds were tested for inhibition of kinase activity against EGFR (aa668-1210, Invitrogen), EGFR(L858R_T790M_C797S) (aa695-end, Invitrogen) and EGFR(Dell9_T790M_C797S) (aa 669-1210, in house) in assays based on time-resolved fluorescence-resonance energy transfer (TR-FRET) methodology. Recombinant EGFR, EGFR(L858R_T790M_C797S) or EGFR(Dell9_T790M_C797S) was pre-incubated with the compounds at room temperature for 15 minutes in an assay buffer containing 50 mM HEPES pH7.5, 10 mM MgCl2, 2 mM DTT, 1 mM EGTA, 0.1% BSA, 0.01% Tween-20. The reactions were initiated by the addition of ATP (at the concentration of ATP Km) and substrate Biotin-Poly GT. After reaction at room temperature for 60 minutes, stop/detection solution was added. The stop/detection solution contained Eu^3+ cryptate-conjugated mouse monoclonal antibody (PT66) anti-phosphotyrosine and XL665-conjugated streptavidin in buffer containing 50 mM HEPES pH7.0, 800 mM KF, 20 mM EDTA, and 0.1% BSA. Plates were sealed and incubated at room temperature for 1 hour, and the TR-FRET signals (ratio of fluorescence emission at 665 nm over emission at 620 nm with excitation at 337 nm wavelength) were recorded on a PHERAstar FS plate reader (BMG Labtech). The residual enzyme activity in presence of increasing concentrations of compounds was calculated based on the ratio of fluorescence at 665 nm to that at 620 nm. The IC50 for each compound was derived from fitting the data to the four-parameter logistic equation by Dotmatics or Graphpad Prism software.
(§2) These biochemical EGFR enzyme form compound dose-response assays quantify the kinase activity via phosphorylation of a tagged poly-GT substrate. The results of the assay are provided as IC50 values.

[2] = target: EGFR(Dell9_T790M_C797S) (aa 669-1210, in house) (Homo sapiens, UniProt P00533, T790M/C797S, form not given); assay: Biochemical EGFR inhibition assay (TR-FRET), Del19/T790M/C797S mutant; details: ATP at Km, 15 min pre-incubation, 60 min reaction; read-out: Del_TM_CS (Km ATP) IC50
Description: as §1, §2

[3] = target: T2, EGFR(L858R_T790M_C797S) (aa695-end, Invitrogen) (Homo sapiens, UniProt P00533, C797S/L858R/T790M); assay: Biochemical EGFR inhibition assay (TR-FRET), L858R/T790M/C797S mutant; details: ATP at Km, 15 min pre-incubation, 60 min reaction; read-out: LR_TM_CS (Km ATP) IC50
T2 construct: purchased Invitrogen
Description: as §1, §2

Chain of EGFR(Dell9_T790M_C797S) (aa 669-1210, in house) (P00533 with tags, fused parts or gaps DEL746-750/T790M/C797S, form open): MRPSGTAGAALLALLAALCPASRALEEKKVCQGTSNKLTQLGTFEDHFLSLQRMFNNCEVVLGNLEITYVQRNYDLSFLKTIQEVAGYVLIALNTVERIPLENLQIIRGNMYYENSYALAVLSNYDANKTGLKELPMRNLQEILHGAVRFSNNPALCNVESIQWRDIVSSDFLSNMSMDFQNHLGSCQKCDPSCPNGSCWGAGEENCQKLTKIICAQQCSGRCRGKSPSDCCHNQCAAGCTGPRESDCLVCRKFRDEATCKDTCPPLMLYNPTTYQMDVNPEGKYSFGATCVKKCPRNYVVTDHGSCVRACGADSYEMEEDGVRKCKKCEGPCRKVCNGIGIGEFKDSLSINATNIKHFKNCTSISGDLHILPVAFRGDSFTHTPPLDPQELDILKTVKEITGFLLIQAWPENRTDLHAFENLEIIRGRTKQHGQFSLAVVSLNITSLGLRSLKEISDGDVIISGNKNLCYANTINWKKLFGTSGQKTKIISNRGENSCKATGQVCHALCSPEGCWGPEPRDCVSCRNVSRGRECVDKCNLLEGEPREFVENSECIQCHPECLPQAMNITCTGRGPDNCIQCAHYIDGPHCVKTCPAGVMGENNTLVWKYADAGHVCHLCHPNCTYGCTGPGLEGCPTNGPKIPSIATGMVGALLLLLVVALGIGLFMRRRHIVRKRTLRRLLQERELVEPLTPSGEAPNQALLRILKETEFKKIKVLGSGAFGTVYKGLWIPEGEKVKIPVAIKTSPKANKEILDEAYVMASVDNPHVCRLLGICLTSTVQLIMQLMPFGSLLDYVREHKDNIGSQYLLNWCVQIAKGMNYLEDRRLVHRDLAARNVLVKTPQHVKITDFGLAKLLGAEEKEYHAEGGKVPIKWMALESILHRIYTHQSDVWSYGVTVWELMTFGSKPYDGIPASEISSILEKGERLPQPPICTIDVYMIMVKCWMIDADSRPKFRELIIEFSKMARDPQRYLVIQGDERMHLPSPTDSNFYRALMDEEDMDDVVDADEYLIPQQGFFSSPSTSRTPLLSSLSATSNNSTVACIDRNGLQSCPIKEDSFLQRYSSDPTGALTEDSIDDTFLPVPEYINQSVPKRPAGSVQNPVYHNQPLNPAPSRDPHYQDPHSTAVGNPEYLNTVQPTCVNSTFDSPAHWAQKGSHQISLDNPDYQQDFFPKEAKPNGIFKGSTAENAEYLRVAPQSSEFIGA
T2 sequence (P00533 695-1210 T790M/C797S/L858R): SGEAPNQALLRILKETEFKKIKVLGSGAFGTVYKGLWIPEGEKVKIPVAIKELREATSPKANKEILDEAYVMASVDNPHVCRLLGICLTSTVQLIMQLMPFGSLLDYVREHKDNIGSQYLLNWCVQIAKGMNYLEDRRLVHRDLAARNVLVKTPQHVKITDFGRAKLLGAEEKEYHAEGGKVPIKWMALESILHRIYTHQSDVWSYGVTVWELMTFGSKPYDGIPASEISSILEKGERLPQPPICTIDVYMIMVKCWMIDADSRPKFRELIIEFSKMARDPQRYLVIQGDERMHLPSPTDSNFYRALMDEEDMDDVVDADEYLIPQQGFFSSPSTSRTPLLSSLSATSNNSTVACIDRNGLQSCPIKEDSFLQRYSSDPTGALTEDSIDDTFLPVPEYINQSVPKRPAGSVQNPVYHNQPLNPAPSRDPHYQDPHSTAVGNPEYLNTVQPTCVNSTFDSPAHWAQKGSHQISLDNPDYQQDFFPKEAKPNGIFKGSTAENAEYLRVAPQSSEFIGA
T1 sequence (P00533 668-1210): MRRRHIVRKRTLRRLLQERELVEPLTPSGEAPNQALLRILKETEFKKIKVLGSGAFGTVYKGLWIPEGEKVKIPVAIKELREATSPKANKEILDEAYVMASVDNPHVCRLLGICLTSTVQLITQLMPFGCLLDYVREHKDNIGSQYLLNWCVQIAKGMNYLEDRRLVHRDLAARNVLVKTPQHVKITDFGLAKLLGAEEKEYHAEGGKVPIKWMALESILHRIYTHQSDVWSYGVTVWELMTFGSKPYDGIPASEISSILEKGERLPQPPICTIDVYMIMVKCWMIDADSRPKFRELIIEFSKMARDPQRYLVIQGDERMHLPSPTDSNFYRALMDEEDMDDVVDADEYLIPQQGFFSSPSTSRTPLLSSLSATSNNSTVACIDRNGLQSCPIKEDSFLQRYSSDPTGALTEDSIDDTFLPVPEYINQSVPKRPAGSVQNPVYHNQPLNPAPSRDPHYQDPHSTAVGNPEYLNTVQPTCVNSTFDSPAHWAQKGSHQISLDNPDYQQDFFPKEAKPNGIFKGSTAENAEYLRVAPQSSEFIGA

| Structure (SMILES) | IC50 [1] | IC50 [2] | IC50 [3] |
| --- | --- | --- | --- |
| COc1cc(N2CCC(N3CCN(C)CC3)CC2)ccc1Nc1ncc(Cl)c(Nc2cccc3c2N(S(=O)(=O)CF)CC3)n1 [Example 12, 5-chloro-N^4-(1-((fluoromethyl)sulfonyl)indolin-7-yl)-N^2-(2-methoxy-4-(4-(4-methylpiperazin-1-yl)piperidin-1-yl)phenyl)pyrimidine-2,4-diamine] | 3 nM | 0.44 nM | 1.17 nM |
| COc1cc(N2CCC(N3CCN(C)CC3)CC2)ccc1Nc1ncc(Br)c(Nc2cccc3c2N(S(C)(=O)=O)CC32CC2)n1 [Example 28, 5-bromo-N^2-(2-methoxy-4-(4-(4-methylpiperazin-1-yl)piperidin-1-yl)phenyl)-N^4-(1′-(methylsulfonyl)spiro[cyclopropane-1,3′-indolin]-7′-yl)pyrimidine-2,4-diamine] | 0.9 nM | 0.39 nM | 0.44 nM |
| COc1cc(N2C[C@@H](C)N(C)[C@@H](C)C2)c(C)cc1Nc1ncc(Br)c(Nc2cccc3c2N(S(C)(=O)=O)CC3)n1 [Example 42, 5-bromo-N^2-(2-methoxy-5-methyl-4-((3S,5R)-3,4,5-trimethylpiperazin-1-yl)phenyl)-N^4-(1-(methylsulfonyl)indolin-7-yl)pyrimidine-2,4-diamine] | 8.5 nM | 0.3 nM | 0.4 nM |
| COc1cc(N2CCN(C)[C@@H](C)C2)c(C)cc1Nc1ncc(Br)c(Nc2cccc3c2N(S(C)(=O)=O)CC3)n1 [Example 43, (S)-5-bromo-N^2-(4-(3,4-dimethylpiperazin-1-yl)-2-methoxy-5-methylphenyl)-N^4-(1-(methylsulfonyl)indolin-7-yl)pyrimidine-2,4-diamine] | 12.1 nM | 0.5 nM | 0.5 nM |
| COc1cc(N2CCC3(CCN(C)CC3)CC2)c(Cl)cc1Nc1ncc(Br)c(Nc2cccc3c2N(S(C)(=O)=O)CC3)n1 [Example 44, 5-bromo-N^2-(5-chloro-2-methoxy-4-(9-methyl-3,9-diazaspiro[5.5]undecan-3-yl)phenyl)-N^4-(1-(methylsulfonyl)indolin-7-yl)pyrimidine-2,4-diamine] | 3.2 nM | 0.7 nM | 0.3 nM |
| COc1cc(N2CCC3(CC2)CN(C)C3)c(C)cc1Nc1ncc(Br)c(Nc2cccc3c2N(S(C)(=O)=O)CC3)n1 [Example 45, 5-bromo-N^2-(2-methoxy-5-methyl-4-(2-methyl-2,7-diazaspiro[3.5]nonan-7-yl)phenyl)-N^4-(1-(methylsulfonyl)indolin-7-yl)pyrimidine-2,4-diamine] | 1 nM | 0.3 nM | 0.2 nM |
| COc1cc(N2CCC(N(C)C)CC2)c(C)cc1Nc1ncc(Br)c(Nc2cccc3c2N(S(C)(=O)=O)CC3)n1 [Example 46, 5-bromo-N^2-(4-(4-(dimethylamino)piperidin-1-yl)-2-methoxy-5-methylphenyl)-N^4-(1-(methylsulfonyl)indolin-7-yl)pyrimidine-2,4-diamine] | 0.9 nM | 0.2 nM | 0.1 nM |
| CN(C)C1CCN(c2ccc(Nc3ncc(Br)c(Nc4cccc5c4N(S(C)(=O)=O)CC5)n3)c3c2CCC3)CC1 [Example 53, 5-bromo-N^2-(7-(4-(dimethylamino)piperidin-1-yl)-2,3-dihydro-1H-inden-4-yl)-N^4-(1-(methylsulfonyl)indolin-7-yl)pyrimidine-2,4-diamine] | 6.5 nM | 0.28 nM | 0.32 nM |
| CN(C)C1CCN(c2ccc(Nc3ncc(Br)c(Nc4cccc5c4N(S(C)(=O)=O)CC5)n3)c3c2CC(C)(C)O3)CC1 [Example 55, 5-bromo-N^2-(4-(4-(dimethylamino)piperidin-1-yl)-2,2-dimethyl-2,3-dihydrobenzofuran-7-yl)-N^4-(1-(methylsulfonyl)indolin-7-yl)pyrimidine-2,4-diamine] | 64.5 nM | 5.82 nM | 7 nM |
| CN1CCN(c2ccc(Nc3ncc(Br)c(Nc4cccc5c4N(S(C)(=O)=O)CC5)n3)c3c2CC(C)(C)O3)CC1 [Example 56, 5-bromo-N^2-(2,2-dimethyl-4-(4-methylpiperazin-1-yl)-2,3-dihydrobenzofuran-7-yl)-N^4-(1-(methylsulfonyl)indolin-7-yl)pyrimidine-2,4-diamine] | 241 nM | 10.6 nM | 23.3 nM |
| CN1CCN(C2CCN(c3ccc(Nc4ncc(Br)c(Nc5cccc6c5N(S(C)(=O)=O)CC6)n4)c4c3CC(C)(C)O4)CC2)CC1 [Example 57, 5-bromo-N^2-(2,2-dimethyl-4-(4-(4-methylpiperazin-1-yl)piperidin-1-yl)-2,3-dihydrobenzofuran-7-yl)-N^4-(1-(methylsulfonyl)indolin-7-yl)pyrimidine-2,4-diamine] | 101 nM | 8.79 nM | 17.1 nM |
| CN1CCN(c2c(F)cc(Nc3ncc(Br)c(Nc4cccc5c4N(S(C)(=O)=O)CC5)n3)c3c2CCO3)CC1 [Example 58, 5-bromo-N^2-(5-fluoro-4-(4-methylpiperazin-1-yl)-2,3-dihydrobenzofuran-7-yl)-N^4-(1-(methylsulfonyl)indolin-7-yl)pyrimidine-2,4-diamine] | 10.3 nM | 1.57 nM | 1.7 nM |
| CN(C)C1CCN(c2c(F)cc(Nc3ncc(Br)c(Nc4cccc5c4N(S(C)(=O)=O)CC5)n3)c3c2CCO3)CC1 [Example 59, 5-bromo-N^2-(4-(4-(dimethylamino)piperidin-1-yl)-5-fluoro-2,3-dihydrobenzofuran-7-yl)-N^4-(1-(methylsulfonyl)indolin-7-yl)pyrimidine-2,4-diamine] | 1.1 nM | 0.24 nM | 0.2 nM |
| CN1CCN(C2CCN(c3c(F)cc(Nc4ncc(Br)c(Nc5cccc6c5N(S(C)(=O)=O)CC6)n4)c4c3CCO4)CC2)CC1 [Example 60, 5-bromo-N^2-(5-fluoro-4-(4-(4-methylpiperazin-1-yl)piperidin-1-yl)-2,3-dihydrobenzofuran-7-yl)-N^4-(1-(methylsulfonyl)indolin-7-yl)pyrimidine-2,4-diamine] | 0.5 nM | 0.35 nM | 0.3 nM |
| CC1Cc2c(N3CCC(N4CCN(C)CC4)CC3)ccc(Nc3ncc(Br)c(Nc4cccc5c4N(S(C)(=O)=O)CC5)n3)c2O1 (stereo not drawn) [Example 61, 5-bromo-N^2-(2-methyl-4-(4-(4-methylpiperazin-1-yl)piperidin-1-yl)-2,3-dihydrobenzofuran-7-yl)-N^4-(1-(methylsulfonyl)indolin-7-yl)pyrimidine-2,4-diamine] | 15.2 nM | 1.58 nM | 1.5 nM |
| CC1Cc2c(N3CCN(C)CC3)ccc(Nc3ncc(Br)c(Nc4cccc5c4N(S(C)(=O)=O)CC5)n3)c2O1 (stereo not drawn) [Example 62, 5-bromo-N^2-(2-methyl-4-(4-methylpiperazin-1-yl)-2,3-dihydrobenzofuran-7-yl)-N^4-(1-(methylsulfonyl)indolin-7-yl)pyrimidine-2,4-diamine] | 11.6 nM | 0.42 nM | 0.68 nM |
| CC1Cc2c(N3CCC(N(C)C)CC3)ccc(Nc3ncc(Br)c(Nc4cccc5c4N(S(C)(=O)=O)CC5)n3)c2O1 (stereo not drawn) [Example 65, 5-bromo-N^2-(4-(4-(dimethylamino)piperidin-1-yl)-2-methyl-2,3-dihydrobenzofuran-7-yl)-N^4-(1-(methylsulfonyl)indolin-7-yl)pyrimidine-2,4-diamine] | 5.5 nM | 0.63 nM | 0.48 nM |
| CCN1CCN(C2CCN(c3c(F)cc(Nc4nc(Nc5cccc6c5N(S(C)(=O)=O)CC6)c5cc[nH]c5n4)cc3F)CC2)CC1 [Example 78, N^2-(4-(4-(4-ethylpiperazin-1-yl)piperidin-1-yl)-3,5-difluorophenyl)-N^4-(1-(methylsulfonyl)indolin-7-yl)-7H-pyrrolo[2,3-d]pyrimidine-2,4-diamine] | 99 nM | 2 nM | 1.5 nM |
| CN1CCN(C2CCN(c3ccc(Nc4nc(Nc5cccc6c5N(S(C)(=O)=O)CC6)c5cc[nH]c5n4)cc3F)CC2)CC1 [Example 79, N^2-(3-fluoro-4-(4-(4-methylpiperazin-1-yl)piperidin-1-yl)phenyl)-N^4-(1-(methylsulfonyl)indolin-7-yl)-7H-pyrrolo[2,3-d]pyrimidine-2,4-diamine] | 14 nM | 0.29 nM | 0.26 nM |
